# Reference: patent US20240166627A1, “Terpyridinedione compound or salt thereof, and preparation method and application thereof” (SHENZHEN SALUBRIS PHARMACEUTICALS CO., LTD., priority 2021, published 2024)
# Experiments:
# [1] = Determination of solubility; format: physicochemical; conditions: aqueous buffer, thermodynamic from solid, 37° C. 1 h
# Description: About 0.5 mg of a to-be-tested sample in a centrifuge tube is weighted, an appropriate amount of DMSO is added to completely dissolve the sample, and then methanol is added to make up to 1 ml.
# (If there are more pH values to be investigated, the preparation method may be deduced by analogy).
# 3. The prepared control solution and test solution are simultaneously put into a 37° C. water bath and heated for 1 h, after 1 h, the solutions are taken out and cooled to room temperature, and then the solutions are filtered with a 0.22 μm filter membrane for sample injection.
# 4. The concentration of the sample in the test solution is calculated according to C=(A*(ms/vs))/AS, and experiment results are shown in Table 2.
# Note: ms, vs and AS are the weight, volume and peak area of the sample in the control solution, respectively.
# A is the peak area of the test solution.
# [2] = Pharmacokinetic experiment in Beagle dogs (IV and PO); format: in vivo; conditions: male, dog, plasma, PO 5 mg/kg
# Excerpt: Polyethylene glycol 400 (batch number: GORKREUT, Saen Chemical Technology (Shanghai) Co., Ltd.); DMSO (batch number: 20200319, GHTECH (Guangdong) Co., Ltd.); and normal saline (batch number: C20052604, Jiangxi Kelun Pharmaceutical Co., Ltd.). An LC-MS instrument (Thermo Fisher Ultimate 3000 UPLC, TSQ QUANTUM ULTRA TSQ Quantum GC).
# 5 male Beagle dogs with weights being 5 kg to 7 kg, purchased from Beijing Mars Biotechnology Co., Ltd. […]
# After the above mixture is given to the dogs through intragastric administration (n=3) or intravenous administration (n=2), about 1 mL of blood is collected from the forelimb or hindlimb vein with a scalp needle, respectively, at 5 min (intravenous administration only), 15 min, 30 min, 1 h, 2 h, 4 h, 6 h, 8 h, 24 h to put into blood collection tubes containing EDTA-K2 anticoagulant; centrifugation is performed for 10 min at 4000 rpm to separate plasma; and then the tubes are stored at −80° C. for testing.
# A certain amount of a test sample is accurately weighted and dissolved with DMSO to 2 mg/mL, as a stock solution. The stock solution is diluted to 30000, 10000, 3000, 1000, 300, 100, 50, 30, and 10 ng/mL by using acetonitrile:water (1:1), to obtain standard curve working solutions. 5 μL of the working solution is added to 45 μL of blank canine plasma; and well mixing is performed through vortex, to prepare into standard curve samples equivalent to plasma concentrations of 3000, 1000, 300, 100, 30, 10, 5, 3, and 1 ng/mL. 30 μL of the standard curve sample and the collected plasma sample (plasma collected at 5 min, 15 min, and 30 min of intravenous administration is diluted 5-fold) are added to 150 μL of a propranolol acetonitrile solution (internal standard, 50 ng/mL) to precipitate protein, then 100 μL of water is added to well mix through vortex; centrifugation is performed for 5 min at 4000 rpm; and supernatant is taken for LC-MS analysis. LC-MS detection conditions include the following.
# Chromatographic column: Waters ACQUITY™ PREMIER HSS T3, 50*2.1 mm, 1.8 μm.
# Mobile phase A: water (0.1% formic acid); mobile phase B: acetonitrile; flow rate: 0.5 mL/min; and gradient elution is shown in Table 3 below.
# After LC-MS detection of blood drug concentration, and a non-compartment model of WinNonlin 6.1 software is adopted to calculate pharmacokinetic parameters of beagle dogs after administration.
# p38α = p38α (Homo sapiens, UniProt Q16539); assay: p38α kinase screening experiment (ADP-Glo); format: biochemical
# Sequence of p38α (Q16539 whole entry): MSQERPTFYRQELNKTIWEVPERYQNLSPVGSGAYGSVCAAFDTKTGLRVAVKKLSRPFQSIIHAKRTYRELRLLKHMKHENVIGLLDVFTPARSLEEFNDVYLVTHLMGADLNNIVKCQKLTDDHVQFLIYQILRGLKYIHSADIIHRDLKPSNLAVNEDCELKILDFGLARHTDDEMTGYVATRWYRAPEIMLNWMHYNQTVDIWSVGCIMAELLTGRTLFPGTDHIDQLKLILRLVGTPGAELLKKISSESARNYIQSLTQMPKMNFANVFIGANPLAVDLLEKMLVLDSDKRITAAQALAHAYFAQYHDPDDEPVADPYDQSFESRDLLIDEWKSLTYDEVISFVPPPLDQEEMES
# Description: A certain amount of the compound is weighed, prepared into a 10/50 mM mother solution with DMSO, diluted 3 folds with DMSO, and diluted to 10 concentration points as a compound working solution.
# 50 nL of the diluted compound working solution is transferred to each well of a reaction plate (784075, Greiner) with Echo 655, then 2.5 μL (4 ng/μL) of a p38α kinase solution is added; after 10 minutes at room temperature, 2.5 μL of a mixed solution of a kinase substrate (0.2 mg/mL) and ATP (150 μM) is added, for reaction for 60 min at room temperature; and 4 μL of an ADP Glo reagent is added, for incubation for 40 min at room temperature. 8 μL of a kinase detection reagent is added, for incubation for 40 min at room temperature; and finally a light-emitting signal is read on Envision 2104.
smiles,measurement,setting,value
Cc1cnc(-n2cccc(C(C)(C)O)c2=O)cc1-n1c(C)cc(OCc2ncc(F)cc2F)c(Cl)c1=O [Comparative example 1],solubility at 1 h,"[1]; pH = 2.0, PBS buffer",427 µg/mL
same,solubility at 1 h,"[1]; pH = 7.4, PBS buffer",595 µg/mL
same,AUC(0-t),[2],32900 ng·h/mL
same,Cmax,[2],5550 ng/mL
same,IC50,"p38α; ATP 150 μM in the substrate/ATP mix, 60 min, read-out: IC50 value that the compound inhibits p38α",578 nM
same,Activity multiple relative to p38α/(p38α/MK2 complex),p38α; ratio of p38α IC50 to p38α/MK2 complex IC50 of Embodiment 50,222
